Laboratory results: ChEMBL document CHEMBL4507311, “Data for DCP probe A-1155463” (2021)

Tests used:
[1] = biological target: Androgen receptor (Homo sapiens) (UniProt P10275); assay: AR (h) Eurofins-Cerep binding assay; parameters: ligand concentration 1 nM; settings: filed as agonist, Compound concentration 10.0 uM
[2] = biological target: Vasoactive intestinal polypeptide receptor 1 (Homo sapiens) (UniProt P32241); assay: VPAC1 (VIP1) (h) Eurofins-Cerep binding assay; parameters: ligand concentration 0.04 nM; settings: filed as agonist, Compound concentration 10.0 uM
Sequence of Vasoactive intestinal polypeptide receptor 1 (Homo sapiens) (P32241 whole entry): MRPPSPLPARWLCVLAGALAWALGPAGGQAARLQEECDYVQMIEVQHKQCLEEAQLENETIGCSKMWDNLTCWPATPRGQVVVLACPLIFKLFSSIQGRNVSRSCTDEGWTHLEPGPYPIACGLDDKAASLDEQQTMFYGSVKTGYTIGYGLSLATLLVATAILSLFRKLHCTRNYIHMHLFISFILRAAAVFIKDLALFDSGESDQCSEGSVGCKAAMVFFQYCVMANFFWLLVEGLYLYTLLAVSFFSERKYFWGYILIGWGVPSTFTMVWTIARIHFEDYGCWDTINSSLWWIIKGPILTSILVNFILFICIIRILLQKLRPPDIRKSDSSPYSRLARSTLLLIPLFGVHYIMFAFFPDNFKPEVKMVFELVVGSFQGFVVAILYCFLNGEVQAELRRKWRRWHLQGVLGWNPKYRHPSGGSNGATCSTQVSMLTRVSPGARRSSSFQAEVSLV

[3] = biological target: T1, 5-hydroxytryptamine receptor 3A (Homo sapiens) (UniProt P46098); assay: 5-HT3 (h) Eurofins-Cerep binding assay; parameters: ligand concentration 0.5 nM; settings: filed as antagonist, Compound concentration 10.0 uM
T1 sequence (whole entry): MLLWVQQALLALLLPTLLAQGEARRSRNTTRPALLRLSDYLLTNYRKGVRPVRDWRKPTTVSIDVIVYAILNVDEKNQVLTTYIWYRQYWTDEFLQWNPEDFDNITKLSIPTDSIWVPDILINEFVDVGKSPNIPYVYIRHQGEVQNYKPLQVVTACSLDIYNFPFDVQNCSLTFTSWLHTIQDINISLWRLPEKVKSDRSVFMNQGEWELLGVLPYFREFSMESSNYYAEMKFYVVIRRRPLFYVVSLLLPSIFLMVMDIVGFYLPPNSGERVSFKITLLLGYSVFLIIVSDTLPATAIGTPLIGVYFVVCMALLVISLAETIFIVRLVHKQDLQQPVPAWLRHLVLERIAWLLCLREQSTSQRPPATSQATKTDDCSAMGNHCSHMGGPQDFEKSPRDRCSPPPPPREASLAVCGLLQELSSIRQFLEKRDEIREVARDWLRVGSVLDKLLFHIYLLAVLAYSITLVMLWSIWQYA

[4] = biological target: Cholecystokinin receptor type A (Homo sapiens) (UniProt P32238); assay: CCK1 (CCKA) (h) Eurofins-Cerep binding assay; parameters: ligand concentration 0.08 nM; settings: filed as agonist, Compound concentration 10.0 uM
Sequence of Cholecystokinin receptor type A (Homo sapiens) (P32238 whole entry): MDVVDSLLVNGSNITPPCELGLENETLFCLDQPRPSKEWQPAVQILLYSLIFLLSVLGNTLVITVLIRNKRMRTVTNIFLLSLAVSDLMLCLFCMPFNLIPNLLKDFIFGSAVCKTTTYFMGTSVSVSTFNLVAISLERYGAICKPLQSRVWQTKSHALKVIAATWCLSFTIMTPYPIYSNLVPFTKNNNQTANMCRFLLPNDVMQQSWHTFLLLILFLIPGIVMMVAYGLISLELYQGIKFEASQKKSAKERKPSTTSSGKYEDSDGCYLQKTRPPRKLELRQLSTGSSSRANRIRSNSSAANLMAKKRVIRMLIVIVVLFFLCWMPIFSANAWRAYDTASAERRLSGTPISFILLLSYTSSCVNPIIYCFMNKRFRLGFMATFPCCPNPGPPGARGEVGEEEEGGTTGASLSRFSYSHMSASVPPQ

[5] = biological target: voltage-gated Na+ channel (site 2) (Rattus norvegicus, UniProt F1LQQ7+O08562+O88420+O88457+P04774+P04775+P08104+P15389+P15390+Q62968); assay: Na+ channel (site 2) Eurofins-Cerep binding assay; assay type: protein assay; parameters: incubation time 60 min, incubation temperature 37°C, ligand concentration 10 nM; settings: rat cerebral cortex, probe [3H]batrachotoxin (10 nM), compound concentration 10 uM, read-out: % Inhibition of Control Specific Binding (Mean n=2)
[6] = biological target: Adenosine receptor A1 (Homo sapiens) (UniProt P30542); assay: A1 (h) Eurofins-Cerep binding assay; parameters: ligand concentration 1 nM; settings: filed as antagonist, Compound concentration 10.0 uM
Sequence of Adenosine receptor A1 (Homo sapiens) (P30542 whole entry): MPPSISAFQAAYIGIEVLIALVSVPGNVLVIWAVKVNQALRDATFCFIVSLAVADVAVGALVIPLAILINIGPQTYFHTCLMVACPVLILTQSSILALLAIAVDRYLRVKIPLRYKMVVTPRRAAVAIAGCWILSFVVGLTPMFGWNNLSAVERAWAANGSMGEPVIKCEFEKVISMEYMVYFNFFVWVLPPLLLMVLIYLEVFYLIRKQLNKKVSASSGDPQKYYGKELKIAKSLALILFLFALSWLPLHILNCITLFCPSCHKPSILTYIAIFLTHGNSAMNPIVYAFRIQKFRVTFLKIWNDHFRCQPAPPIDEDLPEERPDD

[7] = biological target: Prostaglandin G/H synthase 1 (Homo sapiens) (UniProt P23219); assay: COX1(h) Eurofins-Cerep enzyme and uptake assay; settings: Compound concentration 10.0 uM
Sequence of Prostaglandin G/H synthase 1 (Homo sapiens) (P23219 whole entry): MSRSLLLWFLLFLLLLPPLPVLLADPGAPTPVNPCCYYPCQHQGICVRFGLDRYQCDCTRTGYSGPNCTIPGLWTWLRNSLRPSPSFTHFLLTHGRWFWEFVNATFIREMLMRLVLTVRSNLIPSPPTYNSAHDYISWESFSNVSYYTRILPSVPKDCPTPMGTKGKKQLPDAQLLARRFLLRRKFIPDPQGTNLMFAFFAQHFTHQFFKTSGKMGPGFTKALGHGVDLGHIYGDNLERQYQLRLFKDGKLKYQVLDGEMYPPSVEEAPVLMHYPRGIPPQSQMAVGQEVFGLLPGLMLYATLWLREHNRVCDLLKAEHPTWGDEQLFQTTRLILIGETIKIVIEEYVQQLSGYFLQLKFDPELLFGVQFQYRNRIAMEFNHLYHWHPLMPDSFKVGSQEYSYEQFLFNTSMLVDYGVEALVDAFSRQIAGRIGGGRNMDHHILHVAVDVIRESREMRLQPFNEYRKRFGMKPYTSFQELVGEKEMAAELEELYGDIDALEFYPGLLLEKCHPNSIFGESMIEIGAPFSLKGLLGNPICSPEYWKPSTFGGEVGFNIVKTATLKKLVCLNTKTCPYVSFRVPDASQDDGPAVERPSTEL

[8] = biological target: Endothelin-1 receptor (Homo sapiens) (UniProt P25101); assay: ETA (h) Eurofins-Cerep binding assay; parameters: ligand concentration 0.03 nM; settings: filed as agonist, Compound concentration 10.0 uM
Sequence of Endothelin-1 receptor (Homo sapiens) (P25101 whole entry): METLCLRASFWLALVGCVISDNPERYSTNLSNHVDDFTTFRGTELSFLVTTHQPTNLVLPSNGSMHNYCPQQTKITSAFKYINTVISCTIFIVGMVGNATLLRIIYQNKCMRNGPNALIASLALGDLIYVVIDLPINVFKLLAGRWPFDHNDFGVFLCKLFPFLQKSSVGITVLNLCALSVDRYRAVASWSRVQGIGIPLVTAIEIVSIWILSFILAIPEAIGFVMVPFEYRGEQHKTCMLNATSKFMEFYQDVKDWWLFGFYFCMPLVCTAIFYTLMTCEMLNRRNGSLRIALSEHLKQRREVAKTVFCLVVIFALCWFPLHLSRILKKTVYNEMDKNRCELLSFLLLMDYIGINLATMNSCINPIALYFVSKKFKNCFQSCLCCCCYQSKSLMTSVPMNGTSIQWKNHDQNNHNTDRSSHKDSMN

[9] = biological target: Glutamate NMDA receptor (Rattus norvegicus) (UniProt P35439+Q00959+Q00960+Q00961+Q62645+Q8VHN2+Q9R1M7); assay: PCP Eurofins-Cerep binding assay; assay type: protein-complex assay; parameters: ligand concentration 10 nM; settings: filed as antagonist, Compound concentration 10.0 uM
[10] = biological target: cGMP-inhibited 3',5'-cyclic phosphodiesterase 3A (Homo sapiens) (UniProt Q14432); assay: PDE3A (h) Eurofins-Cerep enzyme and uptake assay; settings: Compound concentration 10.0 uM
[11] = biological target: Sodium/potassium-transporting ATPase (Sus scrofa) (UniProt P05027+P05024+D2WKD8+D2WKD7+F1ST41); assay: ATPase (Na+/K+) Eurofins-Cerep enzyme and uptake assay; assay type: protein-complex assay; settings: Compound concentration 10.0 uM
[12] = biological target: Adenosine receptor A2a (Homo sapiens) (UniProt P29274); assay: A2A (h) Eurofins-Cerep binding assay; parameters: ligand concentration 6 nM; settings: filed as agonist, Compound concentration 10.0 uM
Sequence of Adenosine receptor A2a (Homo sapiens) (P29274 whole entry): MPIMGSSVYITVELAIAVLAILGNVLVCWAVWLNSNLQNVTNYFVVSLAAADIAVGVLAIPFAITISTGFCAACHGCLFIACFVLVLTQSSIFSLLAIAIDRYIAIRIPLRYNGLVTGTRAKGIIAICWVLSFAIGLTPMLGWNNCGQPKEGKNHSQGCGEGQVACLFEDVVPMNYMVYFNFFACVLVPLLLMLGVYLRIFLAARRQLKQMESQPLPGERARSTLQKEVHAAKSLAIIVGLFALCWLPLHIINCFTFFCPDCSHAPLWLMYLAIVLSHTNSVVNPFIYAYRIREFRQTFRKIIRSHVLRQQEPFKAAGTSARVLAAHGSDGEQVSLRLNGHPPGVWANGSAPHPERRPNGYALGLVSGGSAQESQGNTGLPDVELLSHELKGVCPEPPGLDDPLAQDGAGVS

[13] = biological target: GABA-A receptor; anion channel (Rattus norvegicus) (UniProt O09028+P15431+P18506+P18508+P19969+P20236+P23574+P23576+P28471+P28473+P30191+P62813+P63079+P63138+Q91ZM7+Q9ES14); assay: BZD (central) Eurofins-Cerep binding assay; assay type: protein-complex assay; parameters: ligand concentration 0.4 nM; settings: filed as agonist, Compound concentration 10.0 uM
[14] = biological target: Histamine H2 receptor (Homo sapiens) (UniProt P25021); assay: H2 (h) Eurofins-Cerep binding assay; parameters: ligand concentration 0.075 nM; settings: filed as antagonist, Compound concentration 10.0 uM
Sequence of Histamine H2 receptor (Homo sapiens) (P25021 whole entry): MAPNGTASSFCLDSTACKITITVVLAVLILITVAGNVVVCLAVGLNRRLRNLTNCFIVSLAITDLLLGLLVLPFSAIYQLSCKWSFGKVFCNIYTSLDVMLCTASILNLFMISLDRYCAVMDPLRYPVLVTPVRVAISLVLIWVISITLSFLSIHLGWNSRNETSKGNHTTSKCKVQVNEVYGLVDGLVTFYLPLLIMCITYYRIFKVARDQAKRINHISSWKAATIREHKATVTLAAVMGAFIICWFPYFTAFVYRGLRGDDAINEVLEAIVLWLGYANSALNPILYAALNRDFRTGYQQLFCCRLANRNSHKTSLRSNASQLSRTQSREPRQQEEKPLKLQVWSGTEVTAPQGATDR

[15] = biological target: Tumor necrosis factor (Homo sapiens) (UniProt P01375); assay: TNF-alpha (h) Eurofins-Cerep binding assay; parameters: ligand concentration 0.1 nM; settings: filed as agonist, Compound concentration 10.0 uM
[16] = biological target: MAO-B (amine oxidase [flavin-containing] B) (Homo sapiens, UniProt P27338); assay: MAO-B (h) recombinant enzyme Eurofins-Cerep enzyme and uptake assay; parameters: incubation time 60 min, incubation temperature 37°C, substrate/stimulus/tracer D-Luciferin derivative (4 µM); settings: probe D-Luciferin derivative (4 µM), compound concentration 10 uM, read-out: % Inhibition of Control Values (Mean n=2)
[17] = biological target: Adenosine receptor A3 (Homo sapiens) (UniProt P0DMS8); assay: A3 (h) Eurofins-Cerep binding assay; parameters: ligand concentration 0.15 nM; settings: filed as agonist, Compound concentration 10.0 uM
Sequence of Adenosine receptor A3 (Homo sapiens) (P0DMS8 whole entry): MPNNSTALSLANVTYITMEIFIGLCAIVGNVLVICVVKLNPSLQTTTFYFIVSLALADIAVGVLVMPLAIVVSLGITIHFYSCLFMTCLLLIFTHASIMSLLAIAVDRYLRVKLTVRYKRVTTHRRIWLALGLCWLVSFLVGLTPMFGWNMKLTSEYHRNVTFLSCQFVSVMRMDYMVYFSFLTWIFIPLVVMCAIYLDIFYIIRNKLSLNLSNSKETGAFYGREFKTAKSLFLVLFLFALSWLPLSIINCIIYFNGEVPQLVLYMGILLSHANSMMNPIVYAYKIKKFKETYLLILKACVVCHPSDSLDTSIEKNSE

[18] = biological target: Sodium-dependent dopamine transporter (Homo sapiens) (UniProt Q01959); assay: dopamine transporter (h) Eurofins-Cerep binding assay; parameters: ligand concentration 4 nM; settings: filed as antagonist, Compound concentration 10.0 uM
[19] = biological target: Sodium-dependent serotonin transporter (Homo sapiens) (UniProt P31645); assay: 5-HT transporter (h) Eurofins-Cerep binding assay; parameters: ligand concentration 2 nM; settings: filed as antagonist, Compound concentration 10.0 uM
Sequence of Sodium-dependent serotonin transporter (Homo sapiens) (P31645 whole entry, looked up): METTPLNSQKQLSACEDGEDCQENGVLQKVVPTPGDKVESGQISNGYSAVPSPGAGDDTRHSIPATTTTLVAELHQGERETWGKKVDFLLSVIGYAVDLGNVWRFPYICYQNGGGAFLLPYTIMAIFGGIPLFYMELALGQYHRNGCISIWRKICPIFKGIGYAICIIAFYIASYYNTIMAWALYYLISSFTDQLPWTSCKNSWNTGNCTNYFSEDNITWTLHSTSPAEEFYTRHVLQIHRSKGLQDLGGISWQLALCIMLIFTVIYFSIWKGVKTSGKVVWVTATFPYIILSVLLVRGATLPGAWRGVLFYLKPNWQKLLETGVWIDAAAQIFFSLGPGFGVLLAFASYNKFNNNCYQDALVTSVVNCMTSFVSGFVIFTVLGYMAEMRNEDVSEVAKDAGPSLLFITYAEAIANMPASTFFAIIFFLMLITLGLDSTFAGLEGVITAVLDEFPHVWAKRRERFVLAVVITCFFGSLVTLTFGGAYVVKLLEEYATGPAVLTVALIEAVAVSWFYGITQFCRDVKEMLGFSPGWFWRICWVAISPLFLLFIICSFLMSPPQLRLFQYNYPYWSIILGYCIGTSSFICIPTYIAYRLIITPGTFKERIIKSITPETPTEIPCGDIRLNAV

[20] = biological target: T2, Muscarinic acetylcholine receptor M2 (Homo sapiens) (UniProt P08172); assay: M2 (h) Eurofins-Cerep binding assay; parameters: ligand concentration 2 nM; settings: filed as antagonist, Compound concentration 10.0 uM
T2 sequence (whole entry): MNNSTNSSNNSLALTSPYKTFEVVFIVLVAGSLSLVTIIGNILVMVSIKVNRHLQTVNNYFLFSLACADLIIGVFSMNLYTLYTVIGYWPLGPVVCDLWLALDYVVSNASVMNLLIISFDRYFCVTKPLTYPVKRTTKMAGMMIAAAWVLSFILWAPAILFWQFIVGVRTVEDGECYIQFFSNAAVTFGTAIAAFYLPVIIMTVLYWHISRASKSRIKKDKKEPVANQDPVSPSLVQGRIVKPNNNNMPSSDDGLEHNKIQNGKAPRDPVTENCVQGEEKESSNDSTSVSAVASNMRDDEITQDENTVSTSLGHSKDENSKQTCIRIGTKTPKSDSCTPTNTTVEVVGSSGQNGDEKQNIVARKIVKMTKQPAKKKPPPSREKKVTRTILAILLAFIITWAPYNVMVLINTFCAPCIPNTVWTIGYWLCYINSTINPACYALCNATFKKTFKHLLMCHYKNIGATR

[21] = biological target: T3, Alpha-2B adrenergic receptor (Homo sapiens) (UniProt P18089); assay: Alpha2B (h) Eurofins-Cerep binding assay; parameters: ligand concentration 2.5 nM; settings: filed as antagonist, Compound concentration 10.0 uM
T3 sequence (whole entry): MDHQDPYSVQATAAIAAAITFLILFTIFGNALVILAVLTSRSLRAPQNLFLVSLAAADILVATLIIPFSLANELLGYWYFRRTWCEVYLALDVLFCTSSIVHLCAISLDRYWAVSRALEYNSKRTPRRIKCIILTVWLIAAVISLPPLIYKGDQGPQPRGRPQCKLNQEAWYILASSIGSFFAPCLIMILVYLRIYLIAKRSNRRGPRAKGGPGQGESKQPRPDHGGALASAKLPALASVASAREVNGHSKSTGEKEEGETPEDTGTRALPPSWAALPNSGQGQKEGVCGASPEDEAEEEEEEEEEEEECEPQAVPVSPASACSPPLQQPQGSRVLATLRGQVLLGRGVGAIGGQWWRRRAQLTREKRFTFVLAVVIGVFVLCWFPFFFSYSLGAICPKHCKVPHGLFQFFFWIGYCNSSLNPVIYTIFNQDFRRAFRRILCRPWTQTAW

Sequence of Androgen receptor (Homo sapiens) (P10275 whole entry): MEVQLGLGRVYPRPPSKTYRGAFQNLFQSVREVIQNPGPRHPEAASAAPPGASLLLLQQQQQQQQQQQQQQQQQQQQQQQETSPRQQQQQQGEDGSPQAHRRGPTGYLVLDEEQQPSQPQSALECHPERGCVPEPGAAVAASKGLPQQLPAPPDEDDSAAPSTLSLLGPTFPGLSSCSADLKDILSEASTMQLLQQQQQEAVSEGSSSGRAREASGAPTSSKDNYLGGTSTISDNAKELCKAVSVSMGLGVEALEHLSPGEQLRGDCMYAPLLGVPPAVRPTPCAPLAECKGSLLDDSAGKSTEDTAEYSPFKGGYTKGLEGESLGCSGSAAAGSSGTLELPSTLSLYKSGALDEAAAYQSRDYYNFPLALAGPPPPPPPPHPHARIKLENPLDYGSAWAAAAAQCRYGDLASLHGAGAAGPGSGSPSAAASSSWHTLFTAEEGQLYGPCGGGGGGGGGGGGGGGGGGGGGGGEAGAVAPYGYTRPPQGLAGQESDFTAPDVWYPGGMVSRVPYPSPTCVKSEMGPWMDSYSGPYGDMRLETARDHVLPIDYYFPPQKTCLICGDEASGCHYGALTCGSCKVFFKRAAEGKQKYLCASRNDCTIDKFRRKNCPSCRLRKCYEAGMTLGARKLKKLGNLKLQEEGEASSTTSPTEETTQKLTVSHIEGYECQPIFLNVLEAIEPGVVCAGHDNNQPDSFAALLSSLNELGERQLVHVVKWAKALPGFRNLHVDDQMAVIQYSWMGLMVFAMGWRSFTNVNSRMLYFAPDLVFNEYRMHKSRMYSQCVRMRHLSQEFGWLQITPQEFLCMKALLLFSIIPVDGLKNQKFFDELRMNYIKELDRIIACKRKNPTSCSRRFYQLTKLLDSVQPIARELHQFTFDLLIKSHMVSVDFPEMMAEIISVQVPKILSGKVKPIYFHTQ

CN(C)CC#Cc1ccc(OCCCc2sc(N3CCc4cccc(C(=O)Nc5nc6ccccc6s5)c4C3)nc2C(=O)O)c(F)c1 [A-1155463]
% Inhibition of Control Specific Binding (Mean n=2) [1]: -1.8%
% Inhibition of Control Specific Binding (Mean n=2) [2]: -8.1%
% Inhibition of Control Specific Binding (Mean n=2) [3]: 2%
% Inhibition of Control Specific Binding (Mean n=2) [4]: 98.9%
inhibition at 60 min, 10 µM [5]: 32.3%
% Inhibition of Control Specific Binding (Mean n=2) [6]: 60.6%
% Inhibition of Control Values (Mean n=2) [7]: 39.5%
% Inhibition of Control Specific Binding (Mean n=2) [8]: -2.2%
% Inhibition of Control Specific Binding (Mean n=2) [9]: 7.8%
% Inhibition of Control Values (Mean n=2) [10]: -17.3%
% Inhibition of Control Values (Mean n=2) [11]: 2%
% Inhibition of Control Specific Binding (Mean n=2) [12]: 51.8%
% Inhibition of Control Specific Binding (Mean n=2) [13]: 18.1%
% Inhibition of Control Specific Binding (Mean n=2) [14]: -11.6%
% Inhibition of Control Specific Binding (Mean n=2) [15]: -6.3%
inhibition at 60 min, 10 µM [16]: -2.2%
% Inhibition of Control Specific Binding (Mean n=2) [17]: 71.6%
% Inhibition of Control Specific Binding (Mean n=2) [18]: 31.6%
% Inhibition of Control Specific Binding (Mean n=2) [19]: 8.5%
% Inhibition of Control Specific Binding (Mean n=2) [20]: 28.6%
% Inhibition of Control Specific Binding (Mean n=2) [21]: -2.5%

O=C(Nc1nc2ccccc2s1)c1cccc2c1CN(c1nc(C(=O)O)c(CCOc3ccc(-n4ncc5cncnc54)cc3)s1)CC2 [A-1107969]
% Inhibition of Control Specific Binding (Mean n=2) [1]: -12.1%
% Inhibition of Control Specific Binding (Mean n=2) [2]: -8.2%
% Inhibition of Control Specific Binding (Mean n=2) [3]: -5.7%
% Inhibition of Control Specific Binding (Mean n=2) [4]: 68.9%
inhibition at 60 min, 10 µM [5]: 3.3%
% Inhibition of Control Specific Binding (Mean n=2) [6]: 7.9%
% Inhibition of Control Values (Mean n=2) [7]: 68.2%
% Inhibition of Control Specific Binding (Mean n=2) [8]: -5.1%
% Inhibition of Control Specific Binding (Mean n=2) [9]: 2.8%
% Inhibition of Control Values (Mean n=2) [10]: -7.5%
% Inhibition of Control Values (Mean n=2) [11]: 12.6%
% Inhibition of Control Specific Binding (Mean n=2) [12]: 28.3%
% Inhibition of Control Specific Binding (Mean n=2) [13]: 17.3%
% Inhibition of Control Specific Binding (Mean n=2) [14]: -11%
% Inhibition of Control Specific Binding (Mean n=2) [15]: -1.7%
inhibition at 60 min, 10 µM [16]: -2%
% Inhibition of Control Specific Binding (Mean n=2) [17]: 54%
% Inhibition of Control Specific Binding (Mean n=2) [18]: 3.6%
% Inhibition of Control Specific Binding (Mean n=2) [19]: -2.3%
% Inhibition of Control Specific Binding (Mean n=2) [20]: -7.3%
% Inhibition of Control Specific Binding (Mean n=2) [21]: -17.8%
